According to US20140031389A1, “SCREENING METHODS AND PHARMACEUTICAL COMPOSITIONS FOR THE TREATMENT OF INFLAMMATORY BOWEL DISEASES” (INSERM (INSTITUT NATIONAL DE LA SANTE ET DE LA RECHERCHE …, priority 2011, published 2014):

Tests used:
[1] = test system: GADD34-mediated elF2alpha dephosphorylation; experiment: elF2alpha phosphorylation and ER stress markers in colonic mucosa of salubrinal-treated IL10/Nox1^dKO mice; type: in vivo
Description: (§1) To assess the pathogenic role of goblet cells in UC, WT and Nox1^KO mice were subjected to oral administration of DSS or rectal administration of TNBS. […] IRE1beta and ATF6alpha branch signaling were extended in colonic epithelial cells as evidenced by the increased XBP-1 mRNA splicing, the induction of GRP78, GRP94, PDI at both mRNA and protein levels, and dilated cisternae and gross distortion of the ER in goblet cells. […] Consistent with reduced eIF2α phosphorylation, increased expression of PPP1R15A/GADD34, a stress-inducible protein that recruits the catalytic subunit of protein phosphatase 1 and promotes elF2alpha dephosphorylation, was detected in agreement with our previous data in humans^1. EIF2alpha phosphorylation is cytoprotective during ERS, because cells are sensitized to cell death when this pathway is genetically ablated^33 and protected when it is ectopically enforced^34. To test whether a selective pharmacological inhibitor of GADD34-mediated elF2alpha dephosphorylation may alleviate colitis, IL10/Nox1^dKO mice were treated with 1 mg/kg salubrinal^35 for up to three weeks.

IL10/Nox1^dKO mice = experiment: Salubrinal treatment of spontaneous colitis in IL10/Nox1^dKO mice; type: in vivo
Description: All SPF-reared C57B1/6-IL10/Nox1^dKO mice developed spontaneously colitis at 6/7 weeks and disease activity index (DAI) scores which became more severe with age, including diarrhea, high incidence of rectal bleeding, change in body and colon weights, and prolapses. None of WT and single-KO mice developed colitis during the time frame studied. […] We next measured epithelial permeability of FITC-dextran in segments of distal colon and indigenous bacterial translocation was identified in the spleen of 7 and 12-week-old mice. […] Consistent with previous findings in patients with UC^30,31, IL10/Nox1^dKO mice expressed almost 50% of microRNAs relevant in defining UC signature.
as §1

[2] = salubrinal-treated IL10/Nox1^dKO mice, 1 mg/kg for up to three weeks
[3] = IL10/Nox1^dKO mice, 1 mg/kg salubrinal for up to three weeks

SMILES: O=C(/C=C/c1ccccc1)NC(NC(=S)Nc1cccc2cccnc12)C(Cl)(Cl)Cl (stereo not drawn) [salubrinal, 3-phenyl-N-[2,2,2-trichloro-1-[[(8-quinolinylamino)thioxomethyl]amino]ethyl]-2-propenamide]
- elF2alpha phosphorylation ([1]; colonic mucosa, IL10/Nox1^dKO mice, 1 mg/kg salubrinal for up to three weeks): robust elF2alpha phosphorylation
- Grp78/Bip and Grp94 expression [1, 2]: trend toward reduced
- localisation of salubrinal-induced phosphorylation of elF2alpha [1, 2]: mainly detected in colonic epithelial cells
- histological colitis score throughout the colon (IL10/Nox1^dKO mice; [3]): strongly reduced
- immune cell infiltration (IL10/Nox1^dKO mice; [3]): markedly prevented
- mucosal architecture and goblet cells (IL10/Nox1^dKO mice; [3]): restored intact mucosal architecture with normal goblet cells
- apoptosis of colonic mucosa (IL10/Nox1^dKO mice; IL10/Nox1^dKO mice, 1 mg/kg salubrinal for up to three weeks, anti-apoptotic activity on CHOP expression): protected colonic mucosa against apoptosis
- amount of colonic and splenic Treg cells (IL10/Nox1^dKO mice; [2]): strongly decreased to baseline
- levels of proinflammatory cytokines (IL10/Nox1^dKO mice; [2]): strongly decreased to baseline
